The subject of assay [1] is A549. The assay can be described thus: Anticancer activity against human A549 cells assessed as reduction in cell viability incubated for 48 hrs by MTT assay. Particulars: A549, 48 h.
The subject of assay [2] is A549. Put plainly: Induction of apoptosis in human A549 cells assessed as reduction in MCL-1 protein level after 2 hrs by sandwich ELISA method. To be noted: A549, 2 h. The class given is functional, cell-based. Background: An ELISA detects its analyte on a solid surface through an enzyme-linked reagent.
The test system of assay [3] is A549. The assay can be described thus: Induction of apoptosis in human A549 cells assessed as late apoptotic cells at 2 uM after 24 hrs by Annexin V-FITC/propidium iodide double staining based flow cytometry (reference value: 0.11%). The class given is functional. On the technique in general: In flow cytometry, cells or beads pass a laser one at a time.
Assay [4] has as its system A549. Put plainly: Cell cycle arrest in human A549 cells assessed as accumulation at S phase at 2 uM after 24 hrs by propidium iodide staining-based flow cytometric method (reference value: 26.79%). It is filed as functional.
The test system of assay [5] is A549. The assay can be described thus: Induction of apoptosis in human A549 cells assessed as measuring caspase-3 levels after 2 hrs by sandwich ELISA method (reference value: 57.22 pg/ml). It is filed as functional.
Assay [6] deals with A549. Put plainly: Induction of apoptosis in human A549 cells assessed as viable cells at 2 uM after 24 hrs by Annexin V-FITC/propidium iodide double staining based flow cytometry (reference value: 97.87%). It is filed as functional. Particulars: A549, 24 h, read-out: Activity.
Assay [7] relates to A549. The assay can be described thus: Induction of apoptosis in human A549 cells assessed as early apoptotic cells at 2 uM after 24 hrs by Annexin V-FITC/propidium iodide double staining based flow cytometry (reference value: […]). It is filed as functional.
Assay [8] concerns A549. The assay can be described thus: Induction of apoptosis in human A549 cells assessed as necrotic cells at 2 uM after 24 hrs by Annexin V-FITC/propidium iodide double staining based flow cytometry (reference value: 0.1%). The class given is functional.
The test system of assay [9] is A549. Put plainly: Cell cycle arrest in human A549 cells assessed as accumulation at G0/G1 phase at 2 uM after 24 hrs by propidium iodide staining-based flow cytometric method (reference value: 65.63%). The class given is functional.
The test system of assay [10] is A549. The assay can be described thus: Cell cycle arrest in human A549 cells assessed as accumulation at pre-G1 phase at 2 uM after […] by propidium iodide staining-based flow cytometric method (reference value: 0.36%). It is filed as functional.
In assay [11] the test system is PANC-1. The assay can be described thus: Anticancer activity against human PANC1 assessed as reduction in cell viability incubated for 48 hrs by MTT assay. To be noted: PANC-1, 48 h.
Assay [12] relates to HT-29. The assay can be described thus: Anticancer activity against human HT-29 assessed as reduction in cell viability incubated for 48 hrs by MTT assay. Particulars: HT-29, 48 h. Background: Tetrazolium assays rely on reduction of a dye to a coloured formazan, in cell work by metabolically active cells.
For assay [13], the system named is OVCAR-3. The assay can be described thus: Anticancer activity against human OVCAR3 assessed as reduction in cell viability incubated for 48 hrs by MTT assay. To be noted: OVCAR-3, 48 h.
In assay [14] the test system is A549. The assay can be described thus: Cell cycle arrest in human A549 cells assessed as accumulation at G2/M phase at 2 uM after 24 hrs by propidium iodide staining-based flow cytometric method (reference value: 7.22%). The class given is functional.
Assay [15] has as its target Receptor tyrosine-protein kinase erbB-2 (Homo sapiens, UniProt P04626). Put plainly: Inhibition of human HER2 in human A549 cells by ELISA method. It is filed as cell-based.
In assay [16] the test system is PANC-1. The assay can be described thus: Anticancer activity against human PANC1 assessed as reduction in cell viability at 100 uM incubated for 48 hrs by MTT assay relative to control. It is filed as functional.
Assay [17] concerns HT-29. Put plainly: Anticancer activity against human HT-29 assessed as reduction in cell viability at 100 uM incubated for 48 hrs by MTT assay relative to control. It is filed as functional.
Assay [18] concerns the target Hepatocyte growth factor receptor (Homo sapiens, UniProt P08581). The assay can be described thus: Inhibition of human c-MET incubated for 2 hrs by ELISA method.
The target of assay [19] is T1, Tyrosine-protein kinase Mer (Homo sapiens, UniProt Q12866).
T1 sequence (Q12866 whole entry): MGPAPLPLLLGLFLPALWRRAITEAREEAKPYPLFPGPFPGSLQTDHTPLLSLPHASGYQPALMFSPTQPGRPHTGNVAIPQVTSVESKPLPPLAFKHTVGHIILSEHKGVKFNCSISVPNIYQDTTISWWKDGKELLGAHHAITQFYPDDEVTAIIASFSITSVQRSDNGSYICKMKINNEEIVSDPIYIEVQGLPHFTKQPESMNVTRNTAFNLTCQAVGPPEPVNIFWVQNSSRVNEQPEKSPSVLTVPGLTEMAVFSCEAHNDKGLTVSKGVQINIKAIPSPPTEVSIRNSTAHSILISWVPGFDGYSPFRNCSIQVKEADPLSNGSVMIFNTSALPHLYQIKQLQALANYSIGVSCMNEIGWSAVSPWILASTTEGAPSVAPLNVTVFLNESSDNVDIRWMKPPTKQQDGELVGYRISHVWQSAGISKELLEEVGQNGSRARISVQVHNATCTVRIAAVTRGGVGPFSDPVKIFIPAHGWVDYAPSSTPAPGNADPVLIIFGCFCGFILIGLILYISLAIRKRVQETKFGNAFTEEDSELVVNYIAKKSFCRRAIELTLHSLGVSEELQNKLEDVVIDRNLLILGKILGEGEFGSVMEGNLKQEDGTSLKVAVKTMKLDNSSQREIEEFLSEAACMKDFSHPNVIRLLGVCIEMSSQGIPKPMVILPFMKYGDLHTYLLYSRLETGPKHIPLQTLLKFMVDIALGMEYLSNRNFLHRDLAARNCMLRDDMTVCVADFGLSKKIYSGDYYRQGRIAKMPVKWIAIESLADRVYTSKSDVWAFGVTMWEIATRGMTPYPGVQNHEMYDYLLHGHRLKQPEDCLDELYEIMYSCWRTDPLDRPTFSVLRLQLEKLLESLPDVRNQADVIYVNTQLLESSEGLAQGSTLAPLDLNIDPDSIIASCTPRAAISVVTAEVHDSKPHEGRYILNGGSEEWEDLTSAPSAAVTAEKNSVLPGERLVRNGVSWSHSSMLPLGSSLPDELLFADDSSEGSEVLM
Put plainly: Inhibition of human MER incubated for 90 mins by ELISA method.

The target in assay [20] is Vascular endothelial growth factor receptor 2 (Homo sapiens, UniProt P35968). Put plainly: Inhibition of human VEGFR2 in human A549 cells incubated for over night by ELISA method. It is filed as cell-based.
In assay [21] the target is Epidermal growth factor receptor (Homo sapiens, UniProt P00533). The assay can be described thus: biochemical. It is filed as cell-based, Sf9.
The test system of assay [22] is A549. Put plainly: Induction of apoptosis in human A549 cells assessed as total apoptotic cells at 2 uM after 24 hrs by Annexin V-FITC/propidium iodide double staining based flow cytometry relative to control. It is filed as functional.
The test system of assay [23] is A549. Put plainly: Induction of apoptosis in human A549 cells assessed as measuring caspase-3 levels after 2 hrs by sandwich ELISA method relative to control. It is filed as functional.
Assay [24] concerns OVCAR-3. The assay can be described thus: Anticancer activity against human OVCAR3 assessed as reduction in cell viability at 100 uM incubated for 48 hrs by MTT assay relative to control. The class given is functional.
The subject of a further assay is 786-0. Put plainly: Anticancer activity against human 786-O assessed as reduction in cell viability at 100 uM incubated for 48 hrs by MTT assay relative to control. It is filed as functional.

The term IC50 denotes the concentration at which inhibition is half-maximal.

The source made the active and inactive calls. No cut-off for these calls is given here. Where only a bound is given, the exact number is not on record here.

Chain of Hepatocyte growth factor receptor (P08581 whole entry): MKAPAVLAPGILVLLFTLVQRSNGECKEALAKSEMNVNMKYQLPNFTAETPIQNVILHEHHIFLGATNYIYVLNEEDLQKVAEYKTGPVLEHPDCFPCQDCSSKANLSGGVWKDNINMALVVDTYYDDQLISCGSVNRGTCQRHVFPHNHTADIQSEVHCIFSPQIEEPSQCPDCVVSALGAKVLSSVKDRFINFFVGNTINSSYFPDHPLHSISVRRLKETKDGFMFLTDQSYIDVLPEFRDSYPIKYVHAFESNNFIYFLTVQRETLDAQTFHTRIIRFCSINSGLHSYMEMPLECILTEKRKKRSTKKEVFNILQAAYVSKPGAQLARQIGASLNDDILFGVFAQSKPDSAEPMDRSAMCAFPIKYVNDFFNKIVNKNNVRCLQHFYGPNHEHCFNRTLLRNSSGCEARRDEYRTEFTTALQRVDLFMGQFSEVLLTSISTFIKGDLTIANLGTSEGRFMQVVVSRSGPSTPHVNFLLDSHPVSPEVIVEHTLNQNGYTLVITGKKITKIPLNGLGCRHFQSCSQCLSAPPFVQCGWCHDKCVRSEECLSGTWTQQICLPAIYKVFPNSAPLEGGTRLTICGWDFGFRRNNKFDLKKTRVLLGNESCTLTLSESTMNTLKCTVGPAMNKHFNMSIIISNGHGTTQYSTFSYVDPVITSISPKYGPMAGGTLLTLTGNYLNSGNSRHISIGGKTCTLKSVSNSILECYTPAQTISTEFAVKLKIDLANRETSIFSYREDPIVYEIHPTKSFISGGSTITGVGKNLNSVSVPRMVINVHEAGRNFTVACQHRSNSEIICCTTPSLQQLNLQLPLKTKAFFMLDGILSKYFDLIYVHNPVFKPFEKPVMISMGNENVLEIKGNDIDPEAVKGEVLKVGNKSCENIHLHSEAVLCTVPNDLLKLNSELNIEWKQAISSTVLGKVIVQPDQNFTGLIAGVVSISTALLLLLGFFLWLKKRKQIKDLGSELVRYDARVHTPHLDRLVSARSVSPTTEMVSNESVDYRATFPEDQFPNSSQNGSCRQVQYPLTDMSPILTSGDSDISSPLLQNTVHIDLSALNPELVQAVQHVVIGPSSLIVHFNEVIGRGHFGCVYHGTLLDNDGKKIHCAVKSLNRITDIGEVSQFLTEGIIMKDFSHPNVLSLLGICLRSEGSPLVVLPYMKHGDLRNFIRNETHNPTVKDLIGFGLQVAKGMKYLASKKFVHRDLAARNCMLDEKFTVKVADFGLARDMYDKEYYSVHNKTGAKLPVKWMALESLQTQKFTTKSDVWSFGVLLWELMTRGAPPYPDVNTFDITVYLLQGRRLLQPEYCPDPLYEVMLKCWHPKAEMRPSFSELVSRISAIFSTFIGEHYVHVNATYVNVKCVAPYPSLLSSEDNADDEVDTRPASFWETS
Chain of Vascular endothelial growth factor receptor 2 (P35968 whole entry): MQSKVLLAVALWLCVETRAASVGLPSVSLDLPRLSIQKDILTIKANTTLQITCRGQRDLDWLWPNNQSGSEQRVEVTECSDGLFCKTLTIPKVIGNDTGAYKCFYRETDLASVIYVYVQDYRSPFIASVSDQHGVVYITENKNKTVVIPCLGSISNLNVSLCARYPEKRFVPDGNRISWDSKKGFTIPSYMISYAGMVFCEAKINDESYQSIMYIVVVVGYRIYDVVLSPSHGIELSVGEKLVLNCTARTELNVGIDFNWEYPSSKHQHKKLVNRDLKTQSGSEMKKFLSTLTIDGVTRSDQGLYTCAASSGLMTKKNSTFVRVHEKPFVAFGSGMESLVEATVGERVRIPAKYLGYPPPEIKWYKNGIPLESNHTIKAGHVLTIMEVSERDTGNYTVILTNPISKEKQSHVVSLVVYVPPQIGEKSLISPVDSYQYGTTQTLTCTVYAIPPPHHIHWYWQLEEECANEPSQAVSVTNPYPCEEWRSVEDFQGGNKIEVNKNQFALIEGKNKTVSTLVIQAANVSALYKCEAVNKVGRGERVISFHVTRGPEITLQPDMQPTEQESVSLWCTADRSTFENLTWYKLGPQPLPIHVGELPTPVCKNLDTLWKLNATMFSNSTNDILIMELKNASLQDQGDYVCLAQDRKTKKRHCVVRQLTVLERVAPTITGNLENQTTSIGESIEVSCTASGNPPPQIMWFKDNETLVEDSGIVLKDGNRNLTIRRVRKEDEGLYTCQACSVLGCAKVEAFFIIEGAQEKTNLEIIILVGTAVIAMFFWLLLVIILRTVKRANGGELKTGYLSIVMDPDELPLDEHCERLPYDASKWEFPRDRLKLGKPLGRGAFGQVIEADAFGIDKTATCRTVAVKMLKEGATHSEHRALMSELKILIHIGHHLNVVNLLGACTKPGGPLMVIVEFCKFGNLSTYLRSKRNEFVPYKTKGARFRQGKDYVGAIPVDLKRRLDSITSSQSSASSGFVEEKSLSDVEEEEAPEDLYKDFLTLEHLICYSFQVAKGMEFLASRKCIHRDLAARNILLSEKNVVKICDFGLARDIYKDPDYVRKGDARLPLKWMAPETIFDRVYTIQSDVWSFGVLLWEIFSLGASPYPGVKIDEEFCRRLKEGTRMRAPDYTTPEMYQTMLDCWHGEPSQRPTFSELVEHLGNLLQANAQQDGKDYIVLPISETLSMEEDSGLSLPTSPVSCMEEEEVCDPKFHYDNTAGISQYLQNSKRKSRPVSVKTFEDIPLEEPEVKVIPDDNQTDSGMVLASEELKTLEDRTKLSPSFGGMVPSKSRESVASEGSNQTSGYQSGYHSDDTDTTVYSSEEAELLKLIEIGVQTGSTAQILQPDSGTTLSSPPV
Chain of Epidermal growth factor receptor (P00533 whole entry): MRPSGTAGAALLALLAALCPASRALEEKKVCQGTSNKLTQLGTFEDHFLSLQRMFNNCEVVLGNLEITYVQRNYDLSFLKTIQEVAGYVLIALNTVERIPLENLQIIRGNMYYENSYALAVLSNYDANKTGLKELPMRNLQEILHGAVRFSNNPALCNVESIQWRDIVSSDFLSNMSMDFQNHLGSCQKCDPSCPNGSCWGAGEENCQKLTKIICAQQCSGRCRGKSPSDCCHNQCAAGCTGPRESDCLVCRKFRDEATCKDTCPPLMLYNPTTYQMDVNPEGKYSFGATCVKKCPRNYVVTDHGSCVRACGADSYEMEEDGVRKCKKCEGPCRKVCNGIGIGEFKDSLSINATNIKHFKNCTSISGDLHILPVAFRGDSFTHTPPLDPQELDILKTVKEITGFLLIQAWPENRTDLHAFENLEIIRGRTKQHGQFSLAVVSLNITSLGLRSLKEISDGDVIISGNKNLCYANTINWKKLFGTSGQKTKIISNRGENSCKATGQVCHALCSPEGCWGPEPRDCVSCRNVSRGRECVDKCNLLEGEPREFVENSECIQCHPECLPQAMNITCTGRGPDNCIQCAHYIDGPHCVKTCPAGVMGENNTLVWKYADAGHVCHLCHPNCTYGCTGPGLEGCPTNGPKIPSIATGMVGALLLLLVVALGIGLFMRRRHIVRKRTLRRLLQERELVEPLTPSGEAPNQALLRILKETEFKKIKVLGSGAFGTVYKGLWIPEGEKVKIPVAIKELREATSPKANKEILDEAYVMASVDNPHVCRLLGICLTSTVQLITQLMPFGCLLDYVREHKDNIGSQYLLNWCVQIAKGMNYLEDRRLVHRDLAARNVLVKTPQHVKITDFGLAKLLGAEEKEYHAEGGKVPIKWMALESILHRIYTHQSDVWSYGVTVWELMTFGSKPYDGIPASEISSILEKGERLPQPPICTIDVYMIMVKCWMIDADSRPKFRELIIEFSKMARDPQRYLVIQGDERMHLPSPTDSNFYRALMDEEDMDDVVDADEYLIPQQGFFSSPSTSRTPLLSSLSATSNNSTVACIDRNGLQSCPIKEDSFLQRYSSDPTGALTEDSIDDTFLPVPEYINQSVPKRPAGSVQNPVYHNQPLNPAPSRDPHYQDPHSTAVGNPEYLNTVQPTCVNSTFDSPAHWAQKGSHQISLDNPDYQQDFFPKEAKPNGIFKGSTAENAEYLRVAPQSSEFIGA

Take `CN1CCN(C(=S)SCC(=O)Nc2cccc(NC(=O)c3ccccn3)c2)CC1`: in the assay with A549 [1], the IC50 is 1340 nM.

For the compound `CCN1CCN(C(=S)SCC(=O)Nc2cccc(NC(=O)c3ccccn3)c2)CC1`, the IC50 in the assay with A549 [1] came to 3720 nM.

Take `O=C(CSC(=S)N1CCOCC1)Nc1cccc(NC(=O)c2ccccn2)c1`: the IC50 in the assay on A549 [1] is 50 nM.

Regarding `O=C(Nc1ccccc1)Nc1cccc(NC(=O)c2ccccn2)c1`, the IC50 in the assay with A549 [1] turned out to be 5190 nM.

Consider `CNC(=O)c1cc(Oc2ccc(NC(=O)Nc3ccc(Cl)c(C(F)(F)F)c3)cc2)ccn1` [SORAFENIB], for which the IC50 came out at 5530 nM in the assay with A549 [2]; 750 nM in the assay with A549 [1]; 20000 nM with PANC-1 [11]; 10000 nM in the assay on HT-29 [12]; 12000 nM in the assay with OVCAR-3 [13]. The Activity is 8.62% with A549 [3]; 15.51% in the assay with A549 [4]; 515 pg/mL in the assay with A549 [5]; 6.18% in the assay on A549 [7]; 1.42% in the assay with A549 [8]; 45.13% in the assay with A549 [9]. Further, the values for the Activity with A549 [10] and in the assay on A549 [14] were 16.22% and 23.14%, respectively. For the same compound, the viability at 2 µM in the assay on A549 [6] was 82%.

Turning to `O=C(CCSC(=S)N1CCOCC1)Nc1cccc(NC(=O)c2ccccn2)c1`, the IC50 in the assay with A549 [1] is 2420 nM.

Regarding `O=C(Nc1cccc(Cl)c1)Nc1cccc(NC(=O)c2ccccn2)c1`, the IC50 with A549 [1] was determined as 2850 nM.

As to `O=C(Nc1cccc(NC(=S)Nc2ccccc2)c1)c1ccccn1`, the IC50 in the assay with A549 [1] was determined as 4400 nM.

Regarding `Cc1ccc(NC(=O)Nc2cccc(NC(=O)c3ccccn3)c2)cc1`, the IC50 with A549 [1] was 20 nM.

As for `O=C(CCSC(=S)N1CCN(c2ccccc2)CC1)Nc1cccc(NC(=O)c2ccccn2)c1`, the IC50 was 54 nM in assay [15]; 31700 nM in the assay on A549 [1]; 17900 nM in [18]; 3120 nM in assay [19]; 94 nM in assay [20]; 70 nM in [21]. Further, the result with PANC-1 [16] and in the assay on HT-29 [17] was Active.

For `CC(C)(C)OC(=O)N1CCN(C(=S)SCC(=O)Nc2cccc(NC(=O)c3ccccn3)c2)CC1`, the IC50 in the assay on A549 [1] was 180 nM.

Take `O=C(CSC(=S)N1CCN(c2ncccn2)CC1)Nc1cccc(NC(=O)c2ccccn2)c1`: the half-inhibitory concentration (IC50) in the assay on A549 [1] is 40 nM.

With `O=C(CSC(=S)N1CCN(C2CCCCC2)CC1)Nc1cccc(NC(=O)c2ccccn2)c1`, in the assay on A549 [1], the IC50 is 390 nM.

On to `O=C(Nc1cccc(NC(=S)Nc2ccc([N+](=O)[O-])cc2)c1)c1ccccn1`, for which the IC50 with A549 [1] is 450 nM.

As for `O=C(CSC(=S)N1CCCCC1)Nc1cccc(NC(=O)c2ccccn2)c1`, the “fold change (FC)” value is listed as 49 in the assay on A549 [22] and 8.833 in the assay on A549 [23]. Further, the IC50 amounted to 6700 nM with A549 [2]; 104 nM in assay [15]; 320 nM in the assay with A549 [1]; 8300 nM in assay [18]; 3950 nM in assay [19]; 27 nM in assay [20]. In [21], this compound yielded an IC50 of 84 nM. In addition, the result with PANC-1 [16] and in the assay on HT-29 [17] was Active. For the same compound, the Activity in the assay on A549 [3] was determined as 7.72%; in the assay on A549 [4], 16.66%; in the assay with A549 [5], 505.4 pg/mL; in the assay with A549 [7], 5.01%; in the assay on A549 [8], 1.33%; in the assay on A549 [9] it was 52.92%. Further, the Activity in the assay with A549 [10] turned out to be 13.06%; in the assay on A549 [14], 17.36%. For the same compound, the viability at 2 µM in the assay with A549 [6] came to 85.2%.

For `O=C(CSC(=S)N1CCN(c2ccccc2)CC1)Nc1cccc(NC(=O)c2ccccn2)c1`, the IC50 with A549 [1] turned out to be 530 nM.

For the compound `O=C(CCSC(=S)N1CCN(c2ncccn2)CC1)Nc1cccc(NC(=O)c2ccccn2)c1`, the IC50 in the assay on A549 [1] stood at 460 nM.

For the compound `O=C(CCSC(=S)N1CCCCC1)Nc1cccc(NC(=O)c2ccccn2)c1`, the IC50 in the assay on A549 [1] was 4120 nM.

In the case of `O=C(NCc1ccccc1)Nc1cccc(NC(=O)c2ccccn2)c1`, the IC50 with A549 [1] amounted to 2990 nM.

Turning to `O=C(Nc1cccc(NC(=O)c2ccccn2)c1)NC1CCCCC1`, the Activity entry in the assay with OVCAR-3 [24], with PANC-1 [16], in the assay with 786-0 and in the assay on HT-29 [17] was “<=50%” each time. In addition, the IC50 in assay [15] is 64 nM; with A549 [1] it was 6260 nM; in assay [18], 6220 nM; in assay [19] it was 2630 nM; in assay [20], 87 nM; in assay [21], 147 nM.

Turning to `O=C(Nc1cccc(NC(=O)c2ccccn2)c1)Nc1ccc2ccccc2c1`, the IC50 in the assay on A549 [1] is 240 nM.

Turning to `O=C(Nc1ccc([N+](=O)[O-])cc1)Nc1cccc(NC(=O)c2ccccn2)c1`, the IC50 with A549 [1] is 320 nM.

Consider `C=CCN1CCN(C(=S)SCC(=O)Nc2cccc(NC(=O)c3ccccn3)c2)CC1`, for which the IC50 in the assay with A549 [1] was found to be 210 nM.

As to `O=C(Nc1ccc(Cl)cc1)Nc1cccc(NC(=O)c2ccccn2)c1`, the IC50 with A549 [1] stood at 3620 nM.

The values are drawn from ChEMBL document CHEMBL4433204, “Design, synthesis and docking study of novel picolinamide derivatives as anticancer agents and VEGFR-2 inhibitors” (Eur J Med Chem, 2019).
